# Measurements taken from PubChem BioAssay AID743097 (Vanderbilt Specialized Chemistry Center, 2013).
# Activity calls are given as the source filed them. How the calls were made is not given here.
# Target: Muscarinic acetylcholine receptor M1 (Homo sapiens) (UniProt P11229)
# Test: potentiation of ACh response at M1 – cell-based, human M1, selectivity assay for M5 PAM discovery project (AID 743097)
# Conditions: CHO-K1 hM1, Fluo-4 calcium flux, ACh EC20 potentiation
# Muscarinic acetylcholine receptor M1 (Homo sapiens), sequence (P11229 whole entry, looked up): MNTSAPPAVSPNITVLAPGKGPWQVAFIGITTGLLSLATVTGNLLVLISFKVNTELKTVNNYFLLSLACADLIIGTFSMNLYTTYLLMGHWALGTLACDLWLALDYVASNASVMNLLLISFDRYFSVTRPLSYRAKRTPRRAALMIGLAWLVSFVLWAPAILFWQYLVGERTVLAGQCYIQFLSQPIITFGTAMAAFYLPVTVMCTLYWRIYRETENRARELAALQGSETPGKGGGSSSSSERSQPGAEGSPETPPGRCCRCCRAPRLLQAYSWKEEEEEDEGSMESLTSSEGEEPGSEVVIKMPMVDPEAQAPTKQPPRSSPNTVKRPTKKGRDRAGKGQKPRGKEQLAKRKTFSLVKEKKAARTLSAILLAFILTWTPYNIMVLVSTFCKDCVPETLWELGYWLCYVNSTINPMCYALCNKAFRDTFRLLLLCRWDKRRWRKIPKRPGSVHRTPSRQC
row,EC50 [µM],SMILES
1,5.28,CCN(C(=O)C1CCN(S(=O)(=O)c2ccc3[nH]ncc3c2)CC1)[C@H](C)c1ccccc1
2,2.52,CCN(Cc1ccccc1Cl)C(=O)C1CCN(S(=O)(=O)c2ccc3[nH]ncc3c2)CC1
3,3.97,CCN(Cc1ccccc1Cl)C(=O)C1CCN(S(=O)(=O)c2ccc3cn[nH]c3c2)CC1
4,6.99,CCN(Cc1ccccc1C(F)(F)F)C(=O)C1CCN(S(=O)(=O)c2ccc3[nH]ncc3c2)CC1
5,4.84,CCN(Cc1ccccc1C(F)(F)F)C(=O)C1(F)CCN(S(=O)(=O)c2ccc3[nH]ncc3c2)CC1

# Same assay, conditions: CHO-K1 hM1, Fluo-4 calcium flux, ACh EC20 potentiation; at 30 µM (top of the series)
row,% of ACh max response,SMILES
1,inactive,CCN(C(=O)C1CCN(S(=O)(=O)c2ccc(OC)cc2)CC1)[C@H](C)c1ccccc1
